The values below come from US10941180B2, “Peptoid compound, and derivative, salt, preparation method and use thereof” (BOE Technology Group Co., Ltd., priority 2018, dated 2021).

Where two headings read alike, the source gives them in different places. Starred links: 1 amine or outer side, 2 acyl side, 3 side chain; linkers in the order of their positions; H or OH if unused. Non-standard residues stand in square brackets, D forms with d. Residues, ends and D or L forms follow the SMILES beside them. X2 = O=C(CN(CCc1ccc(-c2ccccc2)cc1)[*:1])[*:2]; Gly(N-piperonyl) = O=C(O)CNCc1ccc2c(c1)OCO2; X1 = CC(c1ccccc1)N(CC(=O)[*:2])[*:1]; Gly(N-2-aminoethyl) = NCCNCC(=O)O; Nleu = CC(C)CNCC(=O)O; Nlys = NCCCCNCC(=O)O

One assay addresses T1, Her2 protein (Homo sapiens, UniProt P04626).
T1 construct: purchased Sigma (USA)
Nature of the assay: Binding ability to Her2 protein by surface plasmon resonance imaging (SPRi). As for the experimental part: (§1) The SPRi apparatus described in the following examples was Plexera Kx5V2, Plexera Bioscience LLC, USA; and phosphate buffer saline (PBS), phosphoric acid, and proteinase K were prepared according to the product instruction manual.
Unless otherwise indicated, “Her2 protein” herein refers to the full-length Her2 protein.
The specific steps for testing the binding ability of the peptoid compound of Preparation Example 1 or the peptoid Derivative of Preparation Example 2 to the Her2 protein by surface plasmon resonance imaging techniques are shown as follows:
(1) dissolving the peptoid compound of Preparation Example 1 or the peptoid derivative of Preparation Example 2 into ddH2O at a concentration of 1 to 1000 μM to prepare a peptoid compound molecular probe sample to be spotted at a gradient concentration of 1-1000 μM;
(2) spotting the above peptoid compound molecular probe sample on a surface of a 3D chip (PlexArray HT, Plexera Bioscience, USA), in which each sample is repeated for 3 points, incubated at 4° C. for 12 hours, and washed by 10×PBS, 1×PBS and ultrapure water in sequence. The chip was then blocked with 1 M of aminoethanol hydrochloride for 30 minutes, then washed 5 times with ultrapure water, and finally dried with clean nitrogen; […]

Assay [1] has as its target T2, Her2 protein in the serum (Homo sapiens, UniProt P04626).
T2 construct: introducing the serum of the patient with breast cancer and the normal person (diluted 1:5000 in volume); from tissue; host or cells: human serum (breast cancer patients with high Her2 expression, and normal persons)
Nature of the assay: Detection of serum signals of breast cancer patients and normal persons by SPRi with the peptoid probe chip. The settings on record: serum diluted 1:5000; probe concentrations 80 μM, 400 μM, 2 mM, 10 mM, 50 mM; FIG. 3. The assay is classed as binding. As for the experimental part: as §1
Unless otherwise indicated, “patients with breast cancer” herein refers to patients with breast cancer having a high Her2 expression.
The specific steps for testing the detection of the peptoid compound of Preparation Example 1 or the peptoid Derivative of Preparation Example 2 for the blood of the patients with breast cancer by surface plasmon resonance imaging techniques are shown as follows:
(1) in the same manner as in Experimental Example 1, preparing the same 3D chip as in Experimental Example 1, mounting the chip on the SPRi instrument, measuring SPRi angle and adjusting it to the optimal optical position, in which relevant detection points including sample points and blank points are selected in the detection area, and the experimental flow rate is set to 2 μL/s; […]

T1 sequence (P04626 23-1255): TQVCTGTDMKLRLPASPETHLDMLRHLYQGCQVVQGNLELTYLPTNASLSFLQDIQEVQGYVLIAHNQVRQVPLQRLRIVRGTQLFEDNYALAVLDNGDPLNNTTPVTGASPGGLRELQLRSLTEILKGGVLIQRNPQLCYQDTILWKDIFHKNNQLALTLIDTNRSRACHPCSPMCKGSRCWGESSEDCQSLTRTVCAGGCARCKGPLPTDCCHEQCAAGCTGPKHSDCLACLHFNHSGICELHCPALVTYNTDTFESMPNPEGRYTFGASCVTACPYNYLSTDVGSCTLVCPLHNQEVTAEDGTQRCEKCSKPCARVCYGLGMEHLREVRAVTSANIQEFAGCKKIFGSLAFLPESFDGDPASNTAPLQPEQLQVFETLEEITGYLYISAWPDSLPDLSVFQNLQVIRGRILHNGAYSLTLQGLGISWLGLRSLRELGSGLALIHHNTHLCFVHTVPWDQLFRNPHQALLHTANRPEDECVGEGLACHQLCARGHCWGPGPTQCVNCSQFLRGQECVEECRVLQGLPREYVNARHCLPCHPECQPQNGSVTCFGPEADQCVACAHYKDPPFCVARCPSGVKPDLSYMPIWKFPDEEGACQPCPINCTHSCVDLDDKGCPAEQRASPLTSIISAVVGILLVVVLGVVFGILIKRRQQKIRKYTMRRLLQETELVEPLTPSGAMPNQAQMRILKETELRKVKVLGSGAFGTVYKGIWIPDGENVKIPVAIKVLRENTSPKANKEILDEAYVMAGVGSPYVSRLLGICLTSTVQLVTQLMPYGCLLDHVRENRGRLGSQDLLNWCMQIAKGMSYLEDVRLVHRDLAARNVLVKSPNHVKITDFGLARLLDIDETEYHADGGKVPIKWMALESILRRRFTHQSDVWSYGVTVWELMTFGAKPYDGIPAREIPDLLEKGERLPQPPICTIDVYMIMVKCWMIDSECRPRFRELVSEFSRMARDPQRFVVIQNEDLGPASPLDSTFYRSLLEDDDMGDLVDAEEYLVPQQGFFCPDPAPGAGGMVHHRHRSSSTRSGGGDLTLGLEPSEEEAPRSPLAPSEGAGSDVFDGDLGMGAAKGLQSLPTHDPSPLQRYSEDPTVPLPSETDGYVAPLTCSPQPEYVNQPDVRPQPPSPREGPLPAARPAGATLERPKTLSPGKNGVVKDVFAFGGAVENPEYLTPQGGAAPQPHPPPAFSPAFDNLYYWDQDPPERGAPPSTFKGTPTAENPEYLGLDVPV
T2 sequence (P04626 23-647 limits assumed): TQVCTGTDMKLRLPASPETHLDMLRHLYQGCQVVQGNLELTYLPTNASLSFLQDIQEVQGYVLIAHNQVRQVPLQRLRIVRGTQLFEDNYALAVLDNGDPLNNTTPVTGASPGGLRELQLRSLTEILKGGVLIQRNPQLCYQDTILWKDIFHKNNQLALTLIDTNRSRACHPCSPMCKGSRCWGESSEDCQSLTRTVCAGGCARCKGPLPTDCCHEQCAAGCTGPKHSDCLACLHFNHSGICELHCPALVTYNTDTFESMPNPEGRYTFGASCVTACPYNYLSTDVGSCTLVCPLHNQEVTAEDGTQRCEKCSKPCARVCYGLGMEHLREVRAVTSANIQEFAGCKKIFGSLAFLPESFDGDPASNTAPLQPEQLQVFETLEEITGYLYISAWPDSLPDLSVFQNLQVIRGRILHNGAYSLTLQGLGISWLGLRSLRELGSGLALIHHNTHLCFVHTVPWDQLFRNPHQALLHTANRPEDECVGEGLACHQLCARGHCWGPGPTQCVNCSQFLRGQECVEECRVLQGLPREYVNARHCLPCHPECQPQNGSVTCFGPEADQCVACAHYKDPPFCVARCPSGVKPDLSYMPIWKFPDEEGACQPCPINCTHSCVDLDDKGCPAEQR

One may read the Kd as the constant that tells how readily two partners part at equilibrium. With `CC(C)CN(CC(=O)N(CCCCN)CC(=O)N(CC(=O)N(CCCCN)CC(=O)N(CCCCN)CC(=O)N(CCN)CC(=O)N(CCc1ccc(-c2ccccc2)cc1)CC(N)=O)Cc1ccc2c(c1)OCO2)C(=O)CN(C(=O)CNCCCCN)C(C)c1ccccc1` (stereo not drawn) [Preparation Example 1] (H-[Nlys][X1][Nleu][Nlys][Gly(N-piperonyl)][Nlys][Nlys][Gly(N-2-aminoethyl)][X2]-NH2), the Kd at Her2 protein (probe spotted on 3D chip, Her2 at 2.632, 1.316, 0.658, 0.329 μM, fitted with BIAevalution 4.1, read-out: equilibrium dissociation constant KD) is 61.8 nM; at Her2 protein (read-out: equilibrium dissociation constant KD in the binding kinetic constant with Her2 (order of magnitude)) it was roughly 10 nM. Also, the “distinction of serum samples of breast cancer patients from normal persons (ΔAU signal)” value in assay [1] was “clearly distinguish the serum samples of the patients with breast cancer”.
